Data: patent publication US20230270104A1, “USE OF ERYTHRITOL COMPOSITIONS AS MAMMAL-SAFE INSECTICIDES” (Drexel University, priority 2020, published 2023)
Entries after “also recorded” stand apart in the source; their conditions may differ. Read-outs that look alike come from different tables or passages of the source.

Key:
fruit flies [1] = assay: Comparison of erythritol with other human-safe sweet alcohols, fly longevity; assay type: in vivo, Drosophila melanogaster; conditions: 17 days; for longevity, erythritol treatment versus the other treatments: FIG. 6
Procedure: An experiment was conducted to compare the effectiveness of erythritol with other human-safe sweet alcohols: D-mannitol, maltitol, sucrose, and xylitol. The concentration of all sweet alcohols were 1M.
Flies were raised for 17 days on standard fly food that contained 1 M concentrations of each sweetener treatment. Death of flies was recorded daily as before; each treatment was replicated on three vials of 10 flies each for 30 subjects/treatment. Differences in longevity were analyzed using the Kaplan-Meier survival analysis log rank test, making all pairwise comparisons among treatments.

fruit flies [2] = conditions: 0.5 M erythritol food, previous work; cited from earlier work
Drosophila melanogaster [3] = assay: Longevity of adult flies raised on food containing sweeteners; assay type: in vivo; conditions: repeat study, blue-dyed food with 0.0238 g/ml sweetener, FIG. 3
Procedure: All animals were cultured at 25° C., kept at 50-60% humidity, and were raised under a standard 12:12 light dark cycle. For each experimental treatment, n=30 flies were tested in groups of 10 per tube, and three tubes per treatment. Tubes were kept on their side to minimize subject becoming mired in the food. Foods were replaced twice a week. The total number of fruit flies used for these experiments was 780, with 300 used for two initial trials testing mortality among store-brand sweeteners, 210 used for repeating this with blue dye and pure erythritol, 120 for choice trials and 150 for concentration trials.
Standard Drosophila food for larval culturing consisted of water, cornmeal, yeast, molasses, and agar, as previously described (Chakraborty, et al., 2011, PLoS ONE 6: e20799). […] The addition of cornmeal and yeast assured the flies still received sufficient carbohydrates and protein in addition to any effects of the treatment additives.
Drosophila food was combined with an equal weight/volume (0.0238 g/ml) of one non-nutritive sweetener (TRUVIA, EQUAL, SPLENDA, SWEET'NLOW, or PUREVIA) or a control nutritive sweetener (controls: sucrose or corn syrup). Wild type (Canton S) larvae were initially raised on the standard food, and 0-12 hour old adult flies were transferred to foods containing one non-nutritive sweetener or a control treatment. […] The number of dead flies were scored daily.

Drosophila melanogaster [4] = assay: Erythritol concentration trials, fly longevity; assay type: in vivo
Procedure: Standard fly foods were prepared as previously described, and then were treated with 2M, 1M, 0.5M and 0.1M concentrations of erythritol, using 0.5M sucrose as control. 0 to 24 hour-old Drosophila were placed on these foods and mortality was recorded daily for 35 days as above. Analyses were conducted with SPSS software v. 20 (IBM corporation 2011). Fly longevity data were analyzed using survival analysis with right-hand censoring of subjects that lived to the end of the study or were lost for reasons other than death. Test were run for differences in survival distributions [Pr(flies alive) versus insect age] using the log-rank (Mantel-Cox) test to make all pairwise comparisons among treatments within each experiment.

R. flavipes workers = assay type: in vivo, Reticulitermes flavipes
Procedure: Termites used in the survival and choice experiments were collected from three field colonies in Scotland Run Park (39.66° N, 75.05° W) in Clayton, N.J. between April and May 2019. After collection, colonies were maintained in plastic containers with soil and wood from the collection site as a substrate in laboratory conditions (20.8±0.9° C., 49±7% RH). Termites used in the consumption experiment were collected from a single field colony at Cobb's Creek Park (39.94° N, 75.24° W) in Philadelphia, Pa. during September of 2018. Workers were removed from the log and housed within 24 h of collection in 9 cm diameter petri dishes containing damp paper towel as a food source. Dishes were placed in an incubator at 26° C. (relative humidity varied between 40 and 60% across trials, but was consistent among all treatments within each trial). Each petri dish contained 10 workers. Termites used in all experiments measured 3-4 mm in length.
For the survival experiment, unbleached, brown paper towels (12 cm×24 cm, cat no. 01801, Kimberly-Clark Corporation, Neenah, Wis.), were completely submerged for 15 s in solution of distilled water, erythritol (100% purity, NOW foods, Bloomingdale, Ill.) of the below-specified concentrations, and 0.05% Brilliant Blue R-250 dye (cat. no 27816, Sigma-Aldrich, St. Louis, Mo.). The erythritol concentrations used were: 0 M (control), 0.25 M, 0.5 M, 0.75 M, 1.0 M, and 1.25 M. The treated paper towels were removed from solution and allowed to dry horizontally on racks before being cut into squares with an area of 144 cm^2. Papers were thereafter stored dry at room temperature in sealed containers.
Prior to the beginning of the experiment, termites were allowed to acclimate for 3 d to the petri dishes, in order to control for any death due to injury incurred during movement to the petri dishes; this was called the pretrial period. At the beginning of the pretrial period, termites used in the survival experiment were transferred from sections of natural nest kept in laboratory rearing boxes to 9 cm diameter plastic petri dishes lined with brown, unbleached paper towel (12 cm×24 cm) not treated with erythritol. The paper towel was rehydrated with 1 ml of distilled water. Each dish contained 10 workers. After the third (final) day of the pretrial period, dishes were checked for dead termites, assumed to be dead due to injury, and dead termites were replaced with live individuals from a petri dish of extra termites kept in similar conditions.
Following the pretrial period, the experiment was set up: pretrial paper towels were removed and replaced with treated paper towels of the correct erythritol treatment concentration; these were rehydrated with 750 μL of distilled water. Six treatment groups (0 M, 0.25 M, 0.5 M, 0.75 M, 1.0 M, 1.25 M erythritol) were used per colony (n=3 colonies), with three dishes per treatment, each containing 10 termite workers (n=30 workers/treatment/colony, n=540 total workers). Termite mortality was recorded every 24 h for 8 d.
Analyses were performed using SPSS v. 24 (IBM corp. 2016) and. Sigmaplot v.12.5 (Systat Software 2013) software. Differences in survival distributions across concentrations for all colonies, within the colonies, and across colonies were tested using pairwise log-rank Mantel Cox tests in SPSS, with subjects living to the end of the trial or lost to reasons other than death (e.g., escaped or injured) included in the analysis as right-censored values. Mean percent mortality was calculated for each concentration across colonies at 72 and 96 h and a three parameter, best-fit sigmoid curve was fitted to the data in Sigmaplot to assess LC at these time points.

Drosophila melanogaster [5] = assay: Two-way food choice experiments, fly longevity; assay type: in vivo; conditions: FIG. 5
Procedure: Foods containing 2 M erythritol, 1M erythritol and 1M sucrose were prepared for paired presentations in open choice tests. In each treatment one food type contained 0.05% brilliant blue FCF (Fisher 50-727-25). The blue dye allowed visual confirmation of feeding on the dyed food in the pair. The flies were presented with access to two food choices by using a modified cotton stopper with approximately a 1.5 cm diameter hole to connect each pair of food tubes.
The final choice treatment was between blue 2M erythritol food and non-blue 1M sucrose food (this treatment provides a comparison with the 1M erythritol/1M erythritol treatment as a test of dilution of toxicity by alternative food sources; blue guts would confirm erythritol was being consumed in the presence of sucrose). The number of flies with visible blue gut contents and mortality daily were recorded for 30 days.
Analyses were conducted with SPSS software v. 20 (IBM corporation 2011). Fly longevity data were analyzed using survival analysis with right-hand censoring of subjects that lived to the end of the study or were lost for reasons other than death. Test were run for differences in survival distributions [Pr(flies alive) versus insect age] using the log-rank (Mantel-Cox) test to make all pairwise comparisons among treatments within each experiment.

[6] = 1 M sweetener in standard fly food

OC[C@@H](O)[C@@H](O[C@H]1O[C@H](CO)[C@@H](O)[C@H](O)[C@H]1O)[C@H](O)[C@@H](O)CO [maltitol]
longevity compared to sucrose (sugar) control (fruit flies [1]; [6]): did not differ from sugar control; also recorded: did not differ from the control; also recorded: not effective at reducing fly longevity | longevity, erythritol treatment versus the other treatments (fruit flies [1]; [6]): significantly greater longevity than erythritol-fed flies

OC[C@@H](O)[C@@H](O)[C@H](O)[C@H](O)CO [D-mannitol]
longevity compared to sucrose (sugar) control (fruit flies [1]; [6]): did not differ from sugar control; also recorded: slightly but significantly reduced longevity; also recorded: almost insignificant insecticidal effect | longevity, erythritol treatment versus the other treatments (fruit flies [1]; [6]): significantly greater longevity than erythritol-fed flies

OC[C@@H](O)[C@@H](O)CO [erythritol, (2R,3S)-butane-1,2,3,4-tetraol]
time of exposure to reach 50% mortality (fruit flies [2]): 20 days | longevity compared to PUREVIA, EQUAL, sucrose and corn syrup (Drosophila melanogaster [3]): significant decrease in longevity | longevity compared to control food (Drosophila melanogaster [4]; 0.1M erythritol in food, observations terminated at 35 days): no significant difference in longevity | longevity with increasing erythritol concentration (Drosophila melanogaster [4]; 0.1M, 0.5M, 1.0M and 2.0M in food, 35 days, FIG. 4): significant decrease in longevity; also recorded: dose-dependent reduction in longevity | longevity compared to control food containing 0.5M sucrose (Drosophila melanogaster [4]; 0.5M erythritol in food): significant reductions in longevity | longevity compared to control food containing 0.5M sucrose (Drosophila melanogaster [4]; 1M erythritol in food): significant reductions in longevity | longevity compared to all other treatments (Drosophila melanogaster [4]; 2M erythritol in food): significant and severe effect on longevity | reduction in mean longevity (R. flavipes workers; 0.25 M to 0.5 M): 1.74 days | reduction in mean longevity (R. flavipes workers; 0.5-0.75 M): 0.23 days | reduction in mean longevity (R. flavipes workers; 0.75-1.0 M): 0.26 days | reduction in mean longevity (R. flavipes workers; 1.0-1.25 M): 0.14 days | concentration at which significant effects on longevity start (R. flavipes workers; R. flavipes workers, 8 d): 0.25 M | reduction in mean longevity (R. flavipes workers; concentration increased from 0 M to 0.25 M, FIG. 10): 3.77 days | time of exposure to reach 50% mortality (R. flavipes workers; termites, 0.5 M erythritol filter papers): ≤ 2 days | longevity relative to sucrose:sucrose choice (Drosophila melanogaster [5]; choice between 1M sucrose and 1M erythritol): significant decrease in longevity; also recorded: significantly decreased longevity | longevity relative to sucrose:sucrose choice (Drosophila melanogaster [5]; choice between 1M sucrose and 2M erythritol): significant decrease in longevity; also recorded: significantly reduced | toxicity to fruit flies upon ingestion (fruit flies [1]; 1 M in standard fly food): toxic to fruit flies upon ingestion | mean longevity (fruit flies [1]; [6]): 4.7 ± 0.15 days | longevity, erythritol treatment versus the other treatments (fruit flies [1]; [6]): significantly lower; also recorded: significantly shorter longevity

OC[C@H]1O[C@@](CO)(O[C@H]2O[C@H](CO)[C@@H](O)[C@H](O)[C@H]2O)[C@@H](O)[C@@H]1O [sucrose]
longevity, erythritol treatment versus the other treatments (fruit flies [1]; [6]): significantly greater longevity than erythritol-fed flies

OC[C@@H](O)[C@H](O)[C@@H](O)CO [xylitol]
longevity compared to sucrose (sugar) control (fruit flies [1]; [6]): did not differ from sugar control; also recorded: did not differ from the control; also recorded: not effective at reducing fly longevity | longevity, erythritol treatment versus the other treatments (fruit flies [1]; [6]): significantly greater longevity than erythritol-fed flies
